Source: publication PMC12652222 (International Journal of Molecular Sciences, 2025)
Where “and” joins values, the source holds several entries; their conditions need not be identical. Identical values can stand only once.

Columns and labels:
proteinase enzyme = experiment: Proteinase inhibition (anti-arthritic); format: biochemical; design: Proteinase Inhibition (%): concentration or dose not given beside the values; conditions: mean ± SE, n = 3
Experimental: (§1) Anti-arthritic activity was evaluated using diclofenac sodium as the reference drug. The inhibition percentage and IC50 were determined for protein denaturation and the proteinase enzyme.

[1] = Hydroxyl (OH) radical scavenging; format: biochemical; conditions: mean ± SE, n = 3; for OH (%): inhibition % at 20 µg/mL
Experimental: (§2) The antioxidant activity was assessed using the iron reducing power (IRP) and the total antioxidant capacity (TAC). Ascorbic acid served as a standard to calculate the inhibition percentages (%) and the median inhibitory concentration (IC50) of each tested compound against the following radicals: nitric oxide (NO), hydroxyl (OH), hydrogen peroxide (H2O2), ABTS [79], and DPPH [80].

ABTS radical scavenging = format: biochemical; conditions: mean ± SE, n = 3; for ABTS (%): inhibition % at 20 µg/mL
Experimental: as §2

α-glucosidase = experiment: α-Glucosidase inhibition; format: biochemical; conditions: for inhibition of α-glucosidase: at 20 µg/mL
Experimental: (§3) The IC50 and inhibition percentages (Inhib. %) of the enzymes α-amylase and α-glucosidase were calculated.

protein denaturation = experiment: Protein denaturation inhibition (anti-arthritic); format: biochemical; design: concentration or dose not given beside the values; conditions: mean ± SE, n = 3
Experimental: as §1

[2] = Total antioxidant capacity (TAC); format: biochemical; conditions: mean ± SE, n = 3
Experimental: as §2

[3] = Iron-reducing power (IRP); format: biochemical; conditions: mean ± SE, n = 3
Experimental: as §2

[4] = Nitric oxide (NO) radical scavenging; format: biochemical; conditions: mean ± SE, n = 3; for NO (%): inhibition % at 20 µg/mL
Experimental: as §2

[5] = Hydrogen peroxide (H2O2) scavenging; format: biochemical; conditions: mean ± SE, n = 3; for H2O2 (%): inhibition % at 20 µg/mL
Experimental: as §2

DPPH radical scavenging = format: biochemical; conditions: mean ± SE, n = 3; for DPPH (%): inhibition % at 20 µg/mL
Experimental: as §2

[6] = biological target: acetylcholinesterase (AChE) (Homo sapiens, UniProt P22303); experiment: biochemical; conditions: mean ± SE, n = 3; for IC50: read-out: AChE IC50 (µg/mL) (converted)
Experimental: The inhibition percentage and IC50 of the acetylcholinesterase (AChE) enzyme were measured using the Ellman method.

α-amylase = biological target: T1, α-amylase (Homo sapiens, UniProt P04746); experiment: α-Amylase inhibition; format: biochemical; conditions: for inhibition at 20 µg/mL: read-out: α-Amylase Inhibition (%)
T1 sequence (P04746 16-511): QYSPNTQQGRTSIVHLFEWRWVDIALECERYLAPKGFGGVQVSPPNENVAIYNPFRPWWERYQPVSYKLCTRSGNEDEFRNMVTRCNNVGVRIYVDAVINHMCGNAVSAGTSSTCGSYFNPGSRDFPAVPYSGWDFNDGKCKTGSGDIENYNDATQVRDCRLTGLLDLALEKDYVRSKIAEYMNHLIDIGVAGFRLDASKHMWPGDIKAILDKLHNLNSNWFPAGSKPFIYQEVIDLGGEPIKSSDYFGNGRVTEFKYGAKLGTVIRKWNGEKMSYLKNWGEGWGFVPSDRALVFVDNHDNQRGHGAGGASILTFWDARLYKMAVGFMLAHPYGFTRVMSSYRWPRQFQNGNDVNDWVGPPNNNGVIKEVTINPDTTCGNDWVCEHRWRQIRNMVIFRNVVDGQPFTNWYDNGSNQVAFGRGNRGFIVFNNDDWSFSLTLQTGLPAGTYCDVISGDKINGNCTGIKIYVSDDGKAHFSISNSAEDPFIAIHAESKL
Experimental: as §3

acetylcholinesterase (AChE), sequence (P22303 32-614, species assumed): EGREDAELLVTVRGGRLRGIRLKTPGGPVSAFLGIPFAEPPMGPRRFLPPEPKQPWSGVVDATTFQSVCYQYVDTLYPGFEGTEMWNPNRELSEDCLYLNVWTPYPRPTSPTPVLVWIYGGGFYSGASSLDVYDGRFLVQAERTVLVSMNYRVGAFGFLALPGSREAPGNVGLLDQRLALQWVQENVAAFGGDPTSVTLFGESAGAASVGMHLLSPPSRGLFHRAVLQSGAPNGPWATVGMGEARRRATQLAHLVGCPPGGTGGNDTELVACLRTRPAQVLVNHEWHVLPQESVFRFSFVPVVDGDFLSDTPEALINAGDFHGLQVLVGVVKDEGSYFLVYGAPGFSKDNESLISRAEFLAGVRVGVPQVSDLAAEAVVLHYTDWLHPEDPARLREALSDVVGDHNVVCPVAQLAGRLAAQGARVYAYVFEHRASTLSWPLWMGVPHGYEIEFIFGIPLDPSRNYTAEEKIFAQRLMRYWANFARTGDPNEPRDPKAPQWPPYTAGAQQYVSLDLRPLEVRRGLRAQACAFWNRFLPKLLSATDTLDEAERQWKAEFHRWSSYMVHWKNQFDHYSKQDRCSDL

## O=c1/c(=C\[C@@H](O)[C@@H](O)[C@H](O)[C@H](O)CO)sc2nc3sc4c(c3c(=O)n12)CCCC4 [8b, (E)-2-((2R,3R,4R,5R)-2,3,4,5,6-pentahydroxyhexylidene)-6,7,8,9-tetrahydro-5H-benzo-[4,5]thieno [2,3-d]thiazolo [3,2-a]pyrimidine-3,5(2H)-dione]
Proteinase enzyme
  Proteinase IC50: 65.93 ± 2.02 µg/mL
  Proteinase Inhibition (%): 7.63 ± 0.19%
[1]
  OH radical scavenging IC50: 9.24 ± 0.05 µg/mL
ABTS radical scavenging
  ABTS radical scavenging IC50: 4.78 ± 0.05 µg/mL
α-glucosidase
  α-Glucosidase IC50: 3.85 ± 0.05 µg/mL
  inhibition of α-glucosidase: 54.78 ± 0.74%
Protein denaturation
  Protein Denaturation Inhibition (%): 11.80 ± 0.19%
[2]
  TAC (mg Gallic Acid/g): 68.01 mg Gallic Acid/g and 68.01 ± 0.78 mg Gallic Acid/g
[3]
  IRP: 60.86 µg/mL and 60.86 ± 0.78 µg/mL
[4]
  NO radical scavenging IC50: 6.88 ± 0.16 µg/mL
[5]
  H2O2 scavenging IC50: 10.28 ± 0.12 µg/mL
DPPH radical scavenging
  DPPH radical scavenging IC50: 6.01 ± 0.12 µg/mL
[6]
  inhibition at 20 µg/mL: 5.19 ± 0.16%
  IC50: 126 µM
α-amylase
  IC50: 15.4 µM
  inhibition at 20 µg/mL: 61.5 ± 0.74%

## O=c1/c(=C\[C@H](O)[C@@H](O)[C@@H](O)[C@H](O)CO)sc2nc3sc4c(c3c(=O)n12)CCCC4 [8c, (E)-2-((2S,3R,4S,5R)-2,3,4,5,6-pentahydroxyhexylidene)-6,7,8,9-tetrahydro-5H-benzo [4,5]-thieno [2,3-d]thiazolo [3,2-a]-pyrimidine-3,5(2H)-dione]
Proteinase enzyme
  Proteinase IC50: 75.16 ± 2.30 µg/mL
  Proteinase Inhibition (%): 6.18 ± 0.17%
[1]
  OH (%): 5.87 ± 0.17%
  OH radical scavenging IC50: 80.74 ± 2.84 µg/mL
ABTS radical scavenging
  ABTS (%): 15.65 ± 0.20%
  ABTS radical scavenging IC50: 20.68 ± 0.24 µg/mL
α-glucosidase
  α-Glucosidase IC50: 41.00 ± 1.33 µg/mL
Protein denaturation
  Protein Denaturation Inhibition (%): 10.35 ± 0.17%
[2]
  TAC (mg Gallic Acid/g): 15.90 ± 0.20 mg Gallic Acid/g
[3]
  IRP: 8.75 ± 0.20 µg/mL
[4]
  NO (%): 6.75 ± 0.20%
  NO radical scavenging IC50: 60.02 ± 1.12 µg/mL
[5]
  H2O2 (%): 6.58 ± 0.20%
  H2O2 scavenging IC50: 89.75 ± 2.32 µg/mL
DPPH radical scavenging
  DPPH (%): 12.50 ± 0.20%
  DPPH radical scavenging IC50: 31.07 ± 0.34 µg/mL
[6]
  inhibition at 20 µg/mL: 5.93 ± 0.19%
  IC50: 110 µM
α-amylase
  inhibition at 20 µg/mL: 11.9 ± 0.19%

## O=c1/c(=C\[C@H](O)[C@@H](O)[C@H](O)[C@H](O)CO)sc2nc3sc4c(c3c(=O)n12)CCCC4 [8a, (E)-2-((2S,3R,4R,5R)-2,3,4,5,6-pentahydroxyhexylidene)-6,7,8,9-tetrahydro-5H-benzo [4,5]thieno [2,3-d]thiazolo [3,2-a]-pyrimidine-3,5(2H)-dione]
Proteinase enzyme
  Proteinase IC50: 101.84 ± 3.59 µg/mL
  Proteinase Inhibition (%): 4.57 ± 0.15%
[1]
  OH (%): 4.17 ± 0.15%
  OH radical scavenging IC50: 113.71 ± 4.73 µg/mL
ABTS radical scavenging
  ABTS (%): 13.70 ± 0.18%
  ABTS radical scavenging IC50: 23.63 ± 0.28 µg/mL
α-glucosidase
  α-Glucosidase IC50: 64.26 ± 2.84 µg/mL
Protein denaturation
  Protein Denaturation Inhibition (%): 8.74 ± 0.15%
[2]
  TAC (mg Gallic Acid/g): 13.95 ± 0.18 mg Gallic Acid/g
[3]
  IRP: 6.80 ± 0.18 µg/mL
[4]
  NO (%): 4.80 ± 0.18%
  NO radical scavenging IC50: 84.51 ± 2.12 µg/mL
[5]
  H2O2 (%): 4.67 ± 0.17%
  H2O2 scavenging IC50: 126.37 ± 4.09 µg/mL
DPPH radical scavenging
  DPPH (%): 10.55 ± 0.18%
  DPPH radical scavenging IC50: 36.82 ± 0.42 µg/mL
[6]
  inhibition at 20 µg/mL: 5.81 ± 0.18%
  IC50: 112 µM
α-amylase
  inhibition at 20 µg/mL: 10.1 ± 0.17%

## O=c1/c(=C\[C@@H](O)[C@H](O)[C@H](O)CO)sc2nc3sc4c(c3c(=O)n12)CCCC4 [8e, (E)-2-((2R,3S,4R)-2,3,4,5-tetrahydroxypentylidene)-6,7,8,9-tetrahydro-5H-benzo [4,5]thieno [2,3-d]thiazolo [3,2-a]pyrimidine-3,5(2H)-dione]
Proteinase enzyme
  Proteinase IC50: 9.08 ± 0.11 µg/mL
  Proteinase Inhibition (%): 50.90 ± 0.65%
[1]
  OH radical scavenging IC50: 9.14 ± 0.05 µg/mL
ABTS radical scavenging
  ABTS radical scavenging IC50: 4.73 ± 0.05 µg/mL
α-glucosidase
  α-Glucosidase IC50: 3.81 ± 0.05 µg/mL
  inhibition of α-glucosidase: 55.43 ± 0.75%
Protein denaturation
  Protein Denaturation Inhibition (%): 54.07 ± 0.65%
[2]
  TAC (mg Gallic Acid/g): 68.69 mg Gallic Acid/g and 68.69 ± 0.79 mg Gallic Acid/g
[3]
  IRP: 61.54 µg/mL and 61.54 ± 0.79 µg/mL
[4]
  NO radical scavenging IC50: 6.80 ± 0.16 µg/mL
[5]
  H2O2 scavenging IC50: 10.17 ± 0.12 µg/mL
DPPH radical scavenging
  DPPH radical scavenging IC50: 5.95 ± 0.12 µg/mL
[6]
  inhibition at 20 µg/mL: 5.24 ± 0.17%
  IC50: 134 µM
α-amylase
  IC50: 16.3 µM
  inhibition at 20 µg/mL: 62.2 ± 0.75%
